Key:
[1] = target: T1, Aiolos C2H2 zinc finger 2 (AA146-168) (Homo sapiens, UniProt Q96SW2+Q9UKT9); test: Aiolos zinc finger 2 (amino acids 146-168) GFP fusion degradation, flow cytometry; assay type: cell-based
T1 construct: attaching zinc finger 2 (amino acids 146-168) to GFP via a flexible linker; expressed in transfected cells; host or cells: HEK293T

RNF166 [2] = settings: for degradation of RNF166 in protein reporter vector (normalized EGFP:mCherry ratio): HEK293T cells, lentiviral transduction, 1 μM, cereblon and zinc finger-dependent; for degradation of zinc-finger-containing region of RNF166 fused to GFP: flow cytometry
Source text: (§1) Bars corresponding to treatment groups A-D are consistent amongst all genetic background groups. Bar height is the average of three replicates, error bars represent 95% confidence intervals. […] Light gray (asterisk) amino acids designate positions which are components of the C2H2 zinc finger motif and are found across the C2H2 family of zinc fingers. Medium gray (black bar) amino acids are polymorphic sites in C2H2 zinc fingers.

ZFP91 [3] = settings: for degradation of ZFP91 in protein reporter vector (normalized EGFP:mCherry ratio): HEK293T cells, lentiviral transduction, 1 μM, cereblon and zinc finger-dependent; for degradation of zinc-finger-containing region of ZFP91 fused to GFP: flow cytometry
Source text: as §1

ZNF692 [4] = settings: for degradation of ZNF692 in protein reporter vector (normalized EGFP:mCherry ratio): HEK293T cells, lentiviral transduction, 1 μM, cereblon and zinc finger-dependent; for degradation of zinc-finger-containing region of ZNF692 fused to GFP: flow cytometry
Source text: as §1

RNF166 [5] = target: T2, RNF166 (Homo sapiens, UniProt Q96A37+Q96SW2); settings: MM1S (multiple myeloma) and KG1 (Acute Myeloid Leukemia) cell lines; datasets of Kronke et al. 2014, 2015; cited from earlier work
T2 construct: endogenous in cells; host or cells: MM1S, KG1
T2 sequence (Q96A37 whole entry): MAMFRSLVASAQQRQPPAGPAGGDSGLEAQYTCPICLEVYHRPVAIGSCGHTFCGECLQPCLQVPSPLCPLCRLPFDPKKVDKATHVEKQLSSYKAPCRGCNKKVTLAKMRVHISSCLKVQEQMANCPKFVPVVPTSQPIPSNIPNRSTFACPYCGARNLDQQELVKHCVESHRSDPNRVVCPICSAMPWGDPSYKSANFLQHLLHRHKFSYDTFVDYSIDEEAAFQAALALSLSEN
T2 sequence (Q96SW2 whole entry): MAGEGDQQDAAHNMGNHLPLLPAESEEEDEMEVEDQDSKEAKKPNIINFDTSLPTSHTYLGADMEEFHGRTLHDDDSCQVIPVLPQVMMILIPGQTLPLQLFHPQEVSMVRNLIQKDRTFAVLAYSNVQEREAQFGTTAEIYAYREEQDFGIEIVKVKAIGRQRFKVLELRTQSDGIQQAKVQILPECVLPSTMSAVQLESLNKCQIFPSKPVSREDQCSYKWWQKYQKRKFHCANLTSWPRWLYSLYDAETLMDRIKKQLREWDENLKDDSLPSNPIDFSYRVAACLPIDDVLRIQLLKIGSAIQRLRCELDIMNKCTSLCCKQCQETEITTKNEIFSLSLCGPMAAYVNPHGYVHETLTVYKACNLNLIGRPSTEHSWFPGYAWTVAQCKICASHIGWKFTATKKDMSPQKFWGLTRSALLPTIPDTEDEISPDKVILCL
T2 sequence (Q16531 whole entry partner): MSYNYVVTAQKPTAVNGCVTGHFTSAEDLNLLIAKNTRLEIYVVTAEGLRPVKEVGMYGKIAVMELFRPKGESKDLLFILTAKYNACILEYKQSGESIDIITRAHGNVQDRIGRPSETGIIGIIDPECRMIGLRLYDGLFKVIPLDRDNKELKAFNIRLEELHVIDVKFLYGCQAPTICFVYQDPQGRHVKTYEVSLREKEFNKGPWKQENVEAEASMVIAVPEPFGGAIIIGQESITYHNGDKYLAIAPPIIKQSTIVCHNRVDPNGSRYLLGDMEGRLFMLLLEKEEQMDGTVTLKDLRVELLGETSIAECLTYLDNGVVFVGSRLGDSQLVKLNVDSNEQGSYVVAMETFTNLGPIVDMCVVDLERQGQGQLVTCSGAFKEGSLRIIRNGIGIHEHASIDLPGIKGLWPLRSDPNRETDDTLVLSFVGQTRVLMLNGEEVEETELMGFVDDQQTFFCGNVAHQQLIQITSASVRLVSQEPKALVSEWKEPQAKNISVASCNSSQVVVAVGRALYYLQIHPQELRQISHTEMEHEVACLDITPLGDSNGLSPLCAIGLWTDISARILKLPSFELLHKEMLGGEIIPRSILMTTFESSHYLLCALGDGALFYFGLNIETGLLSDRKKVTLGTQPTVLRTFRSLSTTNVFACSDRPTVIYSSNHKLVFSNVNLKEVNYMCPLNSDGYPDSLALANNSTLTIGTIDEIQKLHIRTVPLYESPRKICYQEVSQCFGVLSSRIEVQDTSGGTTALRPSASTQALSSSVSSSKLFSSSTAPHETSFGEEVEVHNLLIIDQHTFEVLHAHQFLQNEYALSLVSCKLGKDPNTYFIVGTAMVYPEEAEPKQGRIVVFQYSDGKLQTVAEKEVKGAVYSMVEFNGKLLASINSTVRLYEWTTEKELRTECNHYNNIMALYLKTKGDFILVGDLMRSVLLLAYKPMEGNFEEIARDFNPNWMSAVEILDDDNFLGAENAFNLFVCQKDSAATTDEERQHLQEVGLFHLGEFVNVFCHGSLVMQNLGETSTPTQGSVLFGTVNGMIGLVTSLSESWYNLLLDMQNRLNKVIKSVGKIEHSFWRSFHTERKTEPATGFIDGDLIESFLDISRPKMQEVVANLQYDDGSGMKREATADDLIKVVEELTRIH

ZNF692 [6] = target: T3, ZNF692 (Homo sapiens, UniProt Q96SW2+Q9BU19); settings: MM1S (multiple myeloma) and KG1 (Acute Myeloid Leukemia) cell lines; datasets of Kronke et al. 2014, 2015; cited from earlier work
T3 construct: endogenous in cells; host or cells: MM1S, KG1
T3 sequence (Q9BU19 whole entry): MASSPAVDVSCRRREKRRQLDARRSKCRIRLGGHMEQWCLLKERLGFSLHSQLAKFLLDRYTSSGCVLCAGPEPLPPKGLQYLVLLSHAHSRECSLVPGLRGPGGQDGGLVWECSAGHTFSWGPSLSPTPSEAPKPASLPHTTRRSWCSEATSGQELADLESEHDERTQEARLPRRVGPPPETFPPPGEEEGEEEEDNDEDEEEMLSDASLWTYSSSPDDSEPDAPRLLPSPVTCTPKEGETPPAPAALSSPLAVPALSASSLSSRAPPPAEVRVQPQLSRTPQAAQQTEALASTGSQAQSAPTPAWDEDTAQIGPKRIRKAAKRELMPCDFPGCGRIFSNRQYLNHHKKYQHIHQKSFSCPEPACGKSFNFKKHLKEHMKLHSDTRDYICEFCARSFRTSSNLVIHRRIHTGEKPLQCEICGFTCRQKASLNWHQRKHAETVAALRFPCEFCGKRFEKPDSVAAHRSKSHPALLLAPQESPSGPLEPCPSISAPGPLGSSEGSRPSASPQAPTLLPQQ
T3 sequence (Q96SW2 whole entry): as the sequence (Q96SW2 whole entry) above
T3 sequence (Q16531 whole entry partner): as the sequence (Q16531 whole entry partner) above

ZFP91 [7] = target: T4, ZFP91 (Homo sapiens, UniProt Q96JP5+Q96SW2); settings: MM1S (multiple myeloma) and KG1 (Acute Myeloid Leukemia) cell lines; datasets of Kronke et al. 2014, 2015; cited from earlier work
T4 construct: endogenous in cells; host or cells: MM1S, KG1
T4 sequence (Q96JP5 2-570 limits assumed): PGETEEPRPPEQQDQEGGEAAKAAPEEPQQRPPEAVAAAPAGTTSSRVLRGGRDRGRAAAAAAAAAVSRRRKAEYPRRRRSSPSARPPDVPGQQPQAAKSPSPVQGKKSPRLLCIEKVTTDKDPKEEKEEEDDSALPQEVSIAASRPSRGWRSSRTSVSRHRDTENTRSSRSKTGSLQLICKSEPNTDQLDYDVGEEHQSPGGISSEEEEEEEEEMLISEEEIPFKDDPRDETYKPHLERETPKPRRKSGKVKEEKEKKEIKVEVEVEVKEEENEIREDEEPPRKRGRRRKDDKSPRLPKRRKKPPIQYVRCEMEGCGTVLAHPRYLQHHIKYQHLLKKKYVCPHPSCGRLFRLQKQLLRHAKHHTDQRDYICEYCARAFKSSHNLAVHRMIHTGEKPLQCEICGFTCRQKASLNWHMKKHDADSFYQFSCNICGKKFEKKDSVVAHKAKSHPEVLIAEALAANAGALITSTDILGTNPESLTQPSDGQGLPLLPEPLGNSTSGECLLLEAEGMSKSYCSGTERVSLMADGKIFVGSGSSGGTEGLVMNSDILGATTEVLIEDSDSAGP
T4 sequence (Q96SW2 whole entry): as the sequence (Q96SW2 whole entry) above
T4 sequence (Q16531 whole entry partner): as the sequence (Q16531 whole entry partner) above

T1 sequence (Q9UKT9 146-168 limits assumed): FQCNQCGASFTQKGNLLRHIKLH
T1 sequence (Q96SW2 whole entry, the tested form may be a part): as the sequence (Q96SW2 whole entry) above
T1 sequence (Q16531 whole entry partner, the tested form may be a part): as the sequence (Q16531 whole entry partner) above

| SMILES | second C2H2 zinc finger in Aiolos (amino acids 146-169) inducing targeting by the drug [1] | degradation of RNF166 in protein reporter vector (normalized EGFP:mCherry ratio) (RNF166 [2]) | degradation of zinc-finger-containing region of RNF166 fused to GFP (RNF166 [2]) | degradation of ZFP91 in protein reporter vector (normalized EGFP:mCherry ratio) (ZFP91 [3]) | degradation of zinc-finger-containing region of ZFP91 fused to GFP (ZFP91 [3]) | degradation of ZNF692 in protein reporter vector (normalized EGFP:mCherry ratio) (ZNF692 [4]) | degradation of zinc-finger-containing region of ZNF692 fused to GFP (ZNF692 [4]) | RNF166 protein abundance in the presence of drug (RNF166 [5]) | ZNF692 protein abundance in the presence of drug (ZNF692 [6]) | ZFP91 protein abundance in the presence of drug (ZFP91 [7]) |
| --- | --- | --- | --- | --- | --- | --- | --- | --- | --- | --- |
| Nc1cccc2c1C(=O)N(C1CCC(=O)NC1=O)C2=O (centres unmarked) [pomalidomide] | both necessary and sufficient to induce targeting | degraded | degraded with varying efficiencies | degraded | degraded with varying efficiencies | degraded | degraded with varying efficiencies |  |  |  |
| O=C1CCC(N2C(=O)c3ccccc3C2=O)C(=O)N1 (centres unmarked) [thalidomide] | both necessary and sufficient to induce targeting | degraded | degraded with varying efficiencies | degraded | degraded with varying efficiencies | degraded | degraded with varying efficiencies | significant decrease in abundance | significant decrease in abundance | significant decrease in abundance |
